Among the data in patent US20260109715A1, “IMIDAZOPYRIDINE DERIVATIVES WITH BICYCLIC STRUCTURE” (PUBLIC UNIVERSITY CORPORATION YOKOHAMA CITY UNIVERSITY, priority 2022, published 2026) are EC50 and IC50 values, retold here.

Test [1] concerns Snhg1 transcript (NMD target gene) in EMT6 murine breast cancer cell line. Nature of the test: Measurement of NMD inhibitory activity in cells (increase in Snhg1 transcript, real-time PCR). As to conditions: Mus musculus, 6 hours treatment, concentration giving 1/2 of maximum Snhg1 fold change of positive control, read-out: Test Example 2 Cell-based Snhg1 EC50. Also on record: species or system mouse. As to the method:
The NMD inhibitory activity of a compound of the present invention or a pharmaceutically acceptable salt thereof in cells can be measured, for example, by the method described below. EMT6 murine breast cancer cell line is treated with a test substance in vitro for 6 hours, and the increase in the transcript of Snhg1, a known NMD target gene, is quantified as an indicator of NMD inhibition. Quantification is performed by real-time PCR.
NMD inhibitory activity was measured by treating EMT6 murine breast cancer cell line (ATCC) with a test substance and quantifying the increase in the transcript of Snhg1, an NMD target gene (see F. Usui, et al., Scientific Reports volume 9, Article number: 1279 (2019) for the NMD target gene). That is, EMT6 cells were suspended in Waymouth's medium (Gibco, 15% FBS) and seeded in a 96-well plate at 2×10^4 cells/well. The cells were cultured for 1 day. The next day, serially diluted test substance (DMSO solution, final DMSO concentration: 2%) was added. After culturing for 6 hours, the supernatant was removed, and RNA was extracted using the RNeasy 96 kit (QIAGEN, 74182). After synthesizing cDNA using the High Capacity cDNA Reverse Transcription kit (Applied Biosystems, 4368813), the cDNA was mixed with PrimeTime Gene Expression Master Mix (Integrated DNA Technologies) and various probes, and gene expression was quantified using QuantStudio 6 Flex (Thermo Fisher Scientific Inc.). For the probe for the Snhg1 gene, which is an NMD target, Mm.PT.58.44039547 (FAM)(Integrated DNA Technologies) was used, and for the probe for the Tbp gene, which is an endogenous control, Mm00446973_m1 Tbp (VIC-PL) (Applied Biosystems) was used. The relative quantification of Snhg1 transcripts was calculated by the ΔΔCT method, using Thp as an endogenous control and setting the expression level of Snhg1 in untreated wells to 1.
A known NMD inhibitory compound (pyrimidine derivative Example 11i, Bioorg Med Chem Lett. 2012, 22(21), 6636-41) was used as a positive control drug for NMD inhibition. The NMD inhibitory activity of the test substance-added well was calculated as follows: the maximum fold change in Sngh1 expression in the positive control drug-added well relative to that in the untreated well was defined as the maximum NMD inhibitory activity, and the EC50 (compound concentration showing 50%/activity) of the test substance showing a ½-fold change was calculated by the GROWTH function of Microsoft Excel.
(Quantitative PCR measures a nucleic acid by following its amplification.)

For another test, the target named is human SMG1 enzyme (Homo sapiens, UniProt Q96Q15). Nature of the test: Measurement of SMG1 kinase activity (ADP-Glo Kinase Assay). It is filed as biochemical. The note with it: purified human SMG1 enzyme 5 nM, Upf1 peptide substrate, ATP 4 μM; qAC50 synonymous with IC50; read-out: Test Example 1 ADP-Glo IC50. From the text: The SMG1 kinase inhibitory activity of a compound of the present invention or a pharmaceutically acceptable salt thereof can be measured, for example, by the method described below. Using purified human SMG1 protein and a substrate peptide as materials, the kinase activity can be measured by the ADP-Glo Kinase Assay; the SMG1 kinase inhibitory activity of a test substance can be evaluated by comparing the kinase activity in the presence and absence of the test substance.
Sequence of human SMG1 enzyme (Q96Q15 whole entry): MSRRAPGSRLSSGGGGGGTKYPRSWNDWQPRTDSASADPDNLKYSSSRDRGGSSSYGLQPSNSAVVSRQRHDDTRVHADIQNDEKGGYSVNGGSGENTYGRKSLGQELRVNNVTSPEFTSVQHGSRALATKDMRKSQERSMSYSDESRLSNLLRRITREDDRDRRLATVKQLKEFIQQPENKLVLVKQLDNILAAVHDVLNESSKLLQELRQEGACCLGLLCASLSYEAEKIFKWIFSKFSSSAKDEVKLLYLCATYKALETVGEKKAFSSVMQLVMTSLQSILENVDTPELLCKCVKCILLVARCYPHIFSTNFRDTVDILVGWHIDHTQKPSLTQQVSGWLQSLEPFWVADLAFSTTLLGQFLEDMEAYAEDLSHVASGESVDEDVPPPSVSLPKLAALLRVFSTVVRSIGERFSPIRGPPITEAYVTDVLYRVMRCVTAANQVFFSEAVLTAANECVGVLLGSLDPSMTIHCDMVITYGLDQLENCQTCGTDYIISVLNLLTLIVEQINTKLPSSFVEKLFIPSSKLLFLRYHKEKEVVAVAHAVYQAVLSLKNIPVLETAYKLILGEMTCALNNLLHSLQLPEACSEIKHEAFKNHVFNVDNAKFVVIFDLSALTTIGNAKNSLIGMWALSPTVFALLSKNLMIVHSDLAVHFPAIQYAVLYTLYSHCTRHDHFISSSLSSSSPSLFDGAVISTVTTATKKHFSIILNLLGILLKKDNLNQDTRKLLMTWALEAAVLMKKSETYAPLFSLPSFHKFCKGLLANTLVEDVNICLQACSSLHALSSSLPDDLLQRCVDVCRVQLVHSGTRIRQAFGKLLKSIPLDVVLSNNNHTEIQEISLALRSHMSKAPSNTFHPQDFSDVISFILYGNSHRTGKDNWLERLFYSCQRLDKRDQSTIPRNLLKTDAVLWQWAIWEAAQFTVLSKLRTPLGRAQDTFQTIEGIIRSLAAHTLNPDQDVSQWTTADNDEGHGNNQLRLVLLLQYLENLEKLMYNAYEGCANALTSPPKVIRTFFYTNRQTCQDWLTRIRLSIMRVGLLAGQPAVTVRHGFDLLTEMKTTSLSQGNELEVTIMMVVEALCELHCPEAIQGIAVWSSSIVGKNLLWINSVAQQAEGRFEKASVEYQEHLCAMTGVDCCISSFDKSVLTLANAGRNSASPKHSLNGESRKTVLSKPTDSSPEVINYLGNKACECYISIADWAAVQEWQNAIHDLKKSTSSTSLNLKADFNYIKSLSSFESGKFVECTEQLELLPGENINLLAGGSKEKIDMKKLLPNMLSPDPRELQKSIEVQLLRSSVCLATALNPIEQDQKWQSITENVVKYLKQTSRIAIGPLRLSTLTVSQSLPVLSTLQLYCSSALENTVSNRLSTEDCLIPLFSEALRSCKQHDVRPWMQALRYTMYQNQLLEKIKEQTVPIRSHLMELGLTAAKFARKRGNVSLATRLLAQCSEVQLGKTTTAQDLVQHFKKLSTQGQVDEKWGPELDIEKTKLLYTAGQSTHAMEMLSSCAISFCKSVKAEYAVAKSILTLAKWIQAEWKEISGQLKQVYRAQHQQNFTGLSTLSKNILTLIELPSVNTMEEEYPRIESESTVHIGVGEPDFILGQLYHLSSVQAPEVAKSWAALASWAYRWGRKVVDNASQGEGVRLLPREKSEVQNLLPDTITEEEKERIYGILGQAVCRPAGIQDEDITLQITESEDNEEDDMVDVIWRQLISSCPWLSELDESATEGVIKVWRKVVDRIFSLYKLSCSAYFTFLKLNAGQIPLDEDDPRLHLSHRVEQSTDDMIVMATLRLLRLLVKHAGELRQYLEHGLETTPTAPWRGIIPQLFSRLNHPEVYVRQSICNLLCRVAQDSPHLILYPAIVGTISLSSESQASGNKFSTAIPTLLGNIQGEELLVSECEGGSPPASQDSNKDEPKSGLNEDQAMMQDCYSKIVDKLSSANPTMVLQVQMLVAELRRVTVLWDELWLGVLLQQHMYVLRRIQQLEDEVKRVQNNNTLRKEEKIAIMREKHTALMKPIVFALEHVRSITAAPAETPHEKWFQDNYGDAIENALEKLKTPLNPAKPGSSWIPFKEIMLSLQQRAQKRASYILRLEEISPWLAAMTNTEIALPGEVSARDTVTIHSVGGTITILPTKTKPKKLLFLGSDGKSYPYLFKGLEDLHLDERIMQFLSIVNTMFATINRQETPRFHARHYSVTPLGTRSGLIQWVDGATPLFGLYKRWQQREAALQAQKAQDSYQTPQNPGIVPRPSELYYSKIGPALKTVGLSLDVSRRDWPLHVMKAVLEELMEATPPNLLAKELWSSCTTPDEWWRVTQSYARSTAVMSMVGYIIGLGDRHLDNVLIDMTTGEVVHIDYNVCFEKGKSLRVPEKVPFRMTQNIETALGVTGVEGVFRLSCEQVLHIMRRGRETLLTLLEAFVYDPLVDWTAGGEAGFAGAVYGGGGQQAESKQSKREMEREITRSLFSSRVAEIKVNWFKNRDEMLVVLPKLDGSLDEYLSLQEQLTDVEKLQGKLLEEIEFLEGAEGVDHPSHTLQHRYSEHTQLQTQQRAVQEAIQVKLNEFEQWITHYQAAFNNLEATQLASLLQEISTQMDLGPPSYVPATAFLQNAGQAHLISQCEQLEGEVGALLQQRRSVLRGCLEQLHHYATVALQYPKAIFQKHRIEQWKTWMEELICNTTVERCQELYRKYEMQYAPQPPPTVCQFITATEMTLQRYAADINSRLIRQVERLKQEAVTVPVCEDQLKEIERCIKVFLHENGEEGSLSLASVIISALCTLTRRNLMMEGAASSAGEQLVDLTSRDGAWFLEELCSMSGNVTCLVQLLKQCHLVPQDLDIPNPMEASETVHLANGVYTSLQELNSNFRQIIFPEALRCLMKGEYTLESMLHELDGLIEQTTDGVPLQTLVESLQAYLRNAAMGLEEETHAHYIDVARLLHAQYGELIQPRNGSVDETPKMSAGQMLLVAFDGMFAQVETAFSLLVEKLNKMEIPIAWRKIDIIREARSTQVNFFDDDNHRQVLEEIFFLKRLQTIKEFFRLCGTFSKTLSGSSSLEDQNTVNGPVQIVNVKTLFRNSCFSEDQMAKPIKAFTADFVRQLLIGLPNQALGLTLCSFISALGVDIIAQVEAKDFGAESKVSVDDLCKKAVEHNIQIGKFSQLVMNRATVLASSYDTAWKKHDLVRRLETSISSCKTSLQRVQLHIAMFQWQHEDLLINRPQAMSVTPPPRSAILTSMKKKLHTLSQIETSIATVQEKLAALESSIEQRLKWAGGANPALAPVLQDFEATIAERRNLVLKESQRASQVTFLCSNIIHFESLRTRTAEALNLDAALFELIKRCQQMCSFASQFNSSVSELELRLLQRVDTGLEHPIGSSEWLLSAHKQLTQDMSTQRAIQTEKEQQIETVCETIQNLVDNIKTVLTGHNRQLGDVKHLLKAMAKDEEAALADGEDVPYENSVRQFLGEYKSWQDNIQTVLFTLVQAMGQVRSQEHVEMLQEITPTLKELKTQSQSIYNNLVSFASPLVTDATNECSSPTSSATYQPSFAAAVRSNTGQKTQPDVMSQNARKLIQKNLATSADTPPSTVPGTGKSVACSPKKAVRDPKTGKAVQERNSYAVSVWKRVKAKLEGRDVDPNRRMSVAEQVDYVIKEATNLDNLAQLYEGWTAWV
The reaction was performed by the ADP-Glo Kinase Assay (Promega, catalog number V9102) using a 384-well plate under the conditions of an assay buffer (100 mM HEPES (pH 7.5), 50 mM NaCl, 10 mM MnCl2, 0.01% BSA, 0.1% Tween 20.5 mM TCEP). After incubating a test substance (DMSO solution; final DMSO concentration: 1%) and purified human SMG1 enzyme (Genes Dev. 2011 Jan. 15; 25(2): 153-164, produced by Daiichi Sankyo RD Novare Co., Ltd.; final concentration: 5 nM) at room temperature for 15 minutes, a substrate, Upf1 peptide (Biotin-(PEG8) QIDVALSQDSTYQG, produced by Eurofins genomics; final concentration: 8 μg/mL), and ATP (Promega: 4 μM) were added, and the mixture was reacted at room temperature for 60 minutes (see Non-Patent Literature R. Melero, et al., Structure Volume 22, Issue 8, 5 Aug. 2014, Pages 1105-1119 for the Upf1 peptide). ADP-Glo Reagent was added, and the mixture was reacted at room temperature for 40 minutes. Kinase Detection Reagent was added, and the mixture was reacted for another 30 minutes. The luminescence intensity was measured using EnVision (PerkinElmer).
The activity value (%) of the test substance-added well was calculated from the following formula, where the average luminescence intensity of the DMSO-added well was 0% and the average luminescence intensity of the SMG1 enzyme-free well was −100%.
The qAC50 (compound concentration showing 50% inhibition, synonymous with IC50) of the test substance was calculated using the activity value (%) at each concentration by Smart fit of Screener (Genedata). Smart fit is a general 4-parameter logistic regression model.

Broadly, the EC50 is the concentration that produces a half-maximal response. In general, IC50 refers to the midpoint of a concentration-inhibition curve.

The structures appear in SMILES notation. Structures can show the parent of a compound that is named as a salt.

In the case of `O=c1[nH]c2ccncc2cc1-c1nc2c(-c3ccccc3F)nc(Cl)cc2[nH]1` [Example 25, 3-[6-chloro-4-(2-fluorophenyl)-1H-imidazo[4,5-c]pyridin-2-yl]-1,6-naphthyridin-2(1H)-one], in test [1], the EC50 amounted to 39 nM. The half-inhibitory concentration (IC50) at human SMG1 enzyme was 1.8 nM.
For `CCc1nc(Cl)cc2[nH]c(-c3cc4c(-c5ccccc5F)nccc4[nH]c3=O)nc12` [Example 27, 3-(6-chloro-4-ethy1-1H-imidazo[4,5-c]pyridin-2-y1)-5-(2-fluorophenyl)-1,6-naphthyridin-2(1H)-one] the same measures were 2.8 nM and 1 nM.
`Cc1nn(CC2CC2)c(C)c1-c1nccc2[nH]c(=O)c(-c3nc4cnc(Cl)cc4[nH]3)cc12` [Example 90, 3-(6-chloro-1H-imidazo[4,5-c]pyridin-2-yl)-5-[1-(cyclopropylmethyl)-3,5-dimethyl-1H-pyrazol-4-yl]-1,6-naphthyridin-2(1H)-one]: the EC50 in test [1] turned out to be 74 nM. Also, the IC50 on human SMG1 enzyme came to 1.5 nM.
Consider `COc1cc(C)ncc1-c1nccc2[nH]c(=O)c(-c3nc4c(C)nc(Cl)cc4[nH]3)cc12` [Example 59, 3-(6-chloro-4-methyl-1H-imidazo[4,5-c]pyridin-2-yl)-5-(4-methoxy-6-methylpyridin-3-yl)-1,6-naphthyridin-2(1H)-one], for which the 50% effective concentration (EC50) in test [1] was 41 nM. Also, the IC50 on human SMG1 enzyme stood at 0.52 nM.
Taken in the same sequence, the figures for `Cc1nn2c(C)c1-c1nccc3[nH]c(=O)c(cc13)-c1nc3c(nc(Cl)cc3[nH]1)N(C)CCCN(C)C(=O)C2C` (stereo not drawn) [Example 114, 7-chloro-10,14,16,19,30-pentamethyl-3,8,10,14,17,18,22,26,31-nonaazahexacyclo[19.6.2.1^2,5.1^17,20.0^4,9.0^25,29]hentriacont-1(28),2,4,6,8,18,20(30),21(29),22,24-decaen-15,27-dione] were 3.2 nM and 1.1 nM.
Taken in the same sequence, the figures for `Cn1ccc(-c2nccc3[nH]c(=O)c(-c4nc5cnc(Cl)cc5[nH]4)cc23)c1` [Example 86, 3-(6-chloro-1H-imidazo[4,5-c]pyridin-2-yl)-5-(1-methyl-1H-pyrrol-3-yl)-1,6-naphthyridin-2(1H)-one] were 43 nM and 1.8 nM.
Taken in the same sequence, the figures for `C[C@@H]1C[C@H](O)CN1c1nc(Cl)cc2[nH]c(-c3cc4cnccc4[nH]c3=O)nc12` [Example 120, 3-{6-chloro-4-[(2R,4S)-4-hydroxy-2-methylpyrrolidin-1-yl]-1H-imidazo[4,5-c]pyridin-2-yl}-1,6-naphthyridin-2(1H)-one methanesulfonate] were 37 nM and 0.96 nM.
On to `[2H]C([2H])([2H])Oc1ccccc1-c1nccc2[nH]c(=O)c(-c3nc4c(C(C)O)nc(Cl)cc4[nH]3)cc12` (stereo not drawn) [Example 40, 3-[6-chloro-4-(1-hydroxyethyl)-1H-imidazo[4,5-c]pyridin-2-yl]-5-{2-[(^2H3)methyloxy]phenyl}-1,6-naphthyridin-2(1H)-one], for which the EC50 in test [1] came out at 11 nM. In addition, the IC50 at human SMG1 enzyme was 0.53 nM.
For `COc1nc(C)ccc1-c1nccc2[nH]c(=O)c(-c3nc4c(C)nc(Cl)cc4[nH]3)cc12` [Example 67, 3-(6-chloro-4-methyl-1H-imidazo[4,5-c]pyridin-2-yl)-5-(2-methoxy-6-methylpyridin-3-yl)-1,6-naphthyridin-2(1H)-one] the same measures were 32 nM and 1 nM.
For `C[C@@H]1COCCN1c1nc(Cl)cc2[nH]c(-c3cc4cnc(C5=CCCN(C)C5)cc4[nH]c3=O)nc12` [Example 3, 3-{6-chloro-4-[(3R)-3-methylmorpholin-4-yl]-1H-imidazo[4,5-c]pyridin-2-yl}-7-(1-methyl-1,2,5,6-tetrahydropyridin-3-yl)-1,6-naphthyridin-2(1H)-one] the same measures were 161 nM and 4.6 nM.
Taken in the same sequence, the figures for `Nc1cccc(-c2nc(Cl)cc3[nH]c(-c4cc5cnccc5[nH]c4=O)nc23)c1` [Example 24, 3-[4-(3-aminophenyl)-6-chloro-1H-imidazo[4,5-c]pyridin-2-yl]-1H-1,6-naphthyridin-2-one trifluoroacetate] were 76 nM and 2.2 nM.
Turning to `COc1nc(C)ccc1-c1nccc2[nH]c(=O)c(-c3nc4cnc(Cl)cc4[nH]3)cc12` [Example 66, 3-(6-chloro-1H-imidazo[4,5-c]pyridin-2-yl)-5-(2-methoxy-6-methylpyridin-3-yl)-1,6-naphthyridin-2(1H)-one], the EC50 in test [1] is 67 nM. The half-inhibitory concentration (IC50) at human SMG1 enzyme was 2.2 nM.
On to `Cc1c2cccc1-c1nccc3[nH]c(=O)c(cc13)-c1nc3c(nc(Cl)cc3[nH]1)NCC(C)(C)NC(=O)CO2` [Example 111, 7-chloro-12,12,31-trimethyl-16-oxa-3,8,10,13,23,27,32-heptaazahexacyclo[20.6.2.1^2,5.1^17,21.0^4,9.0^26,30]dotriacont-1(29),2,4,6,8,17(31),18,20,22(30),23,25-undecaen-14,28-dione], for which, in test [1], the EC50 stood at 8.4 nM. Besides, the concentration for half-maximal inhibition (IC50) at human SMG1 enzyme is 1.6 nM.
In the case of `Cc1c(OC(F)F)cccc1-c1nccc2[nH]c(=O)c(-c3nc4cnc(Cl)cc4[nH]3)cc12` [Example 33, 3-(6-chloro-1H-imidazo[4,5-c]pyridin-2-y1)-5-[3-(difluoromethoxy)-2-methylpheny1]-1,6-naphthyridin-2(1H)-one], in test [1], the EC50 was 48 nM. For the same compound, the 50% inhibitory concentration (IC50) on human SMG1 enzyme is 3 nM.
Taken in the same sequence, the figures for `CCc1nc(Cl)cc2[nH]c(-c3cc4c(-c5cnc(C6CC6)cc5OC(F)F)nccc4[nH]c3=O)nc12` [Example 75, 3-(6-chloro-4-ethyl-1H-imidazo[4,5-c]pyridin-2-yl)-5-[6-cyclopropyl-4-(difluoromethoxy)pyridin-3-yl]-1,6-naphthyridin-2(1H)-one] were 51 nM and 1.2 nM.
Taken in the same sequence, the figures for `COc1cc(C(F)(F)F)ncc1-c1nccc2[nH]c(=O)c(-c3nc4c(C)nc(Cl)cc4[nH]3)cc12` [Example 64, 3-(6-chloro-4-methyl-1H-imidazo[4,5-c]pyridin-2-yl)-5-[4-methoxy-6-(trifluoromethyl)pyridin-3-yl]-1,6-naphthyridin-2(1H)-one] were 15 nM and 0.84 nM.
Taken in the same sequence, the figures for `CC(C1CCOCC1)N(C)c1nc(Cl)cc2[nH]c(-c3cc4cnccc4[nH]c3=O)nc12` (stereo not drawn) [Example 6, 3-(6-chloro-4-{methyl[1-(tetrahydro-2H-pyran-4-yl)ethyl]amino}-1H-imidazo[4,5-c]pyridin-2-yl)-1,6-naphthyridin-2(1H)-one] were 8.6 nM and 1.4 nM.
In the case of `Cc1cc2ccc1-c1nccc3[nH]c(=O)c(cc13)-c1nc3c(nc(Cl)cc3[nH]1)N(C)CCC(=O)N(C)C2` [Example 109, 7-chloro-10,14,18-trimethyl-3,8,10,14,21,25,31-heptaazahexacyclo[18.6.2.2^16,19.1^2,5.0^4,9.0^24,28]hentriacont-1(27),2,4,6,8,16,18,20(28),21,23,29-undecaen-13,26-dione], in test [1], the EC50 came out at 165 nM. Besides, the IC50 on human SMG1 enzyme turned out to be 2.3 nM.
